Experimental data: ChEMBL document CHEMBL5360625, “Design, Synthesis, and Antitumor Activity Evaluation of 2-Arylmethoxy-4-(2,2'-dihalogen-substituted biphenyl-3-ylmethoxy) Benzylamine Derivatives as Potent PD-1/PD-L1 Inhibitors” (J Med Chem, 2023)
Active and inactive are the calls of the source. No cut-off for these calls is given here.

Assays:
[1] = Half life in Sprague-Dawley rat at 40 mg/kg, IG measured upto 48 hrs by LC-MS/MS analysis; type: ADME, organism-based; conditions: Sprague-Dawley, in vivo, po
[2] = Toxicity in PD-1/PD-L1 humanized C57/BL6 mouse implanted with mouse MC38 cells assessed as mortality at 50 mg/kg, IG qd administered on day 5 measured after 2 weeks; type: organism-based, MC-38; conditions: in vivo, po, 336 h
[3] = Toxicity in PD-1/PD-L1 humanized C57/BL6 mouse implanted with mouse MC38 cells assessed as morphological change in heart at 50 mg/kg, IG qd administered on day 5 measured after 2 weeks by hematoxylin-eosin staining based inverted fluorescent microscopic analysis; type: organism-based, MC-38; conditions: in vivo, po, 336 h
[4] = molecular target: Programmed cell death protein 1/Programmed cell death 1 ligand 1 (Homo sapiens) (UniProt Q15116+Q9NZQ7); test: Inhibition of PD-1/PD-L1 interaction in human PBMC cells assessed as increase in IFN-gamma secretion at 4 uM incubated for 48 hrs in presence of PD-L1 protein by ELISA assay; type: cell-based
[5] = Apparent volume of distribution in Sprague-Dawley rat at 40 mg/kg, IG measured upto 48 hrs by LC-MS/MS analysis; type: ADME, organism-based; conditions: in vivo, po
[6] = Toxicity in PD-1/PD-L1 humanized C57/BL6 mouse implanted with mouse MC38 cells assessed as morphological change in kidney at 50 mg/kg, IG qd administered on day 5 measured after 2 weeks by hematoxylin-eosin staining based inverted fluorescent microscopic analysis; type: organism-based, MC-38; conditions: in vivo, po, 336 h
PBMC = test: Cytotoxicity against human PBMC cells assessed as reduction in cell viability at 1 to 4 uM measured after 48 hrs by CCK-8 assay; type: toxicity, cell-based; conditions: dose 1-4 µM
[7] = Cmax in Sprague-Dawley rat at 10 mg/kg, ip measured upto 48 hrs by LC-MS/MS analysis; type: ADME, organism-based; parameters: time < 48 hrs, dose 10 mg/kg, route ip; conditions: in vivo
[8] = Half life in Sprague-Dawley rat at 8 mg/kg, iv measured upto 48 hrs by LC-MS/MS analysis; type: ADME, organism-based; conditions: Sprague-Dawley, in vivo
[9] = Toxicity in PD-1/PD-L1 humanized C57/BL6 mouse implanted with mouse MC38 cells assessed as morphological change in liver at 50 mg/kg, IG qd administered on day 5 measured after 2 weeks by hematoxylin-eosin staining based inverted fluorescent microscopic analysis; type: organism-based, MC-38; conditions: in vivo, po, 336 h
MC-38 [10] = test: Antitumor activity against mouse MC38 cells expressing human PD-L1 protein assessed as reduction in cell viability measured after 48 hrs by CCK-8 assay; type: functional, cell-based; conditions: MC-38, 48 h
[11] = Tmax in Sprague-Dawley rat at 40 mg/kg, IG measured upto 48 hrs by LC-MS/MS analysis; type: ADME, organism-based; conditions: in vivo, po
MC-38 [12] = test: Antitumor activity against mouse MC38 cells implanted in PD-1/PD-L1 humanized C57/BL6 mouse assessed as increase in perforin levels at 50 mg/kg, IG qd administered on day 5 measured after 2 weeks by microscopic analysis; type: functional, organism-based
[13] = molecular target: Programmed cell death 1 ligand 1 (Homo sapiens, UniProt Q9NZQ7); test: Binding affinity to human PD-L1 expressed in Escherichia coli strain BL21 assessed as dissociation constant by NMR spectroscopic analysis
Chain of Programmed cell death 1 ligand 1 (Q9NZQ7 whole entry): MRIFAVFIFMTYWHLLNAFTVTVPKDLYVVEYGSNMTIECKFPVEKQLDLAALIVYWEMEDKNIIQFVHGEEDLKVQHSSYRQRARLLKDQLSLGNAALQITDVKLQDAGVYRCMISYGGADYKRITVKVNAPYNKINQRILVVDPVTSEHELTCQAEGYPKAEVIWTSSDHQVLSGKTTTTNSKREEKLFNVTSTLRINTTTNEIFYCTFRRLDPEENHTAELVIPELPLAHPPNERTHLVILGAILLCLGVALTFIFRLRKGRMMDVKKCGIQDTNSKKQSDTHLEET

MC-38 [14] = test: Immunomodulatory activity in mouse MC38 cells implanted in PD-1/PD-L1 humanized C57/BL6 mouse assessed as increase in CXCL10 mRNA expression level in tumor at 50 mg/kg, IG qd administered on day 5 measured after 2 weeks by RT-PCR analysis; type: functional, organism-based
MC-38 [15] = test: Antitumor activity against mouse MC38 cells implanted in PD-1/PD-L1 humanized C57/BL6 mouse assessed as increase in granzyme B level at 50 mg/kg, IG qd administered on day 5 measured after 2 weeks by microscopic analysis; type: functional, organism-based
MC-38 [16] = test: Immunomodulatory activity in mouse MC38 cells implanted in PD-1/PD-L1 humanized C57/BL6 mouse assessed as increase in CXCL9 mRNA expression level in tumor at 50 mg/kg, IG qd administered on day 5 measured after 2 weeks by RT-PCR analysis; type: functional, organism-based
MC-38 [17] = test: Antitumor activity against mouse MC38 cells implanted in PD-1/PD-L1 humanized C57/BL6 mouse assessed as increase in CD8 positive CD4 positive ratio in tumor at 50 mg/kg, IG qd administered on day 5 measured after 2 weeks by flow cytometry analysis; type: functional, organism-based
[18] = Clearance in Sprague-Dawley rat at 40 mg/kg, IG measured upto 48 hrs by LC-MS/MS analysis; type: ADME, organism-based; conditions: Sprague-Dawley, in vivo, po
MC-38 [19] = test: Immunomodulatory activity in mouse MC38 cells implanted in PD-1/PD-L1 humanized C57/BL6 mouse assessed as increase in CXCR3 mRNA expression level in tumor at 50 mg/kg, IG qd administered on day 5 measured after 2 weeks by RT-PCR analysis; type: functional, organism-based
[20] = Hepatotoxicity in PD-1/PD-L1 humanized C57/BL6 mouse implanted with mouse MC38 cells assessed as effect on total protein level in serum at 50 mg/kg, IG qd administered on day 5 measured after 2 weeks; type: toxicity, organism-based, MC-38; conditions: in vivo, po, 336 h
[21] = Bioavailability in Sprague-Dawley rat at 40 mg/kg, IG measured upto 48 hrs by LC-MS/MS analysis; type: ADME, organism-based; conditions: in vivo, po
[22] = Hepatotoxicity in PD-1/PD-L1 humanized C57/BL6 mouse implanted with mouse MC38 cells assessed as effect on AST level in serum at 50 mg/kg, IG qd administered on day 5 measured after 2 weeks; type: toxicity, organism-based, MC-38; conditions: in vivo, po, 336 h
[23] = Toxicity in PD-1/PD-L1 humanized C57/BL6 mouse implanted with mouse MC38 cells assessed as change in body weight at 50 mg/kg, IG qd administered on day 5 measured after 2 weeks; type: organism-based, MC-38; conditions: in vivo, po, 336 h
MC-38 [24] = test: Antitumor activity against mouse MC38 cells implanted in PD-1/PD-L1 humanized C57/BL6 mouse assessed as reduction in tumor growth at 50 mg/kg, IG qd administered on day 5 measured after 2 weeks; type: functional, organism-based
[25] = AUC (0 to t) in Sprague-Dawley rat at 8 mg/kg, iv measured upto 48 hrs by LC-MS/MS analysis; type: ADME, organism-based; parameters: dose 8 mg/kg, time < 48 hrs, route iv; conditions: in vivo
[26] = Cmax in Sprague-Dawley rat at 40 mg/kg, IG measured upto 48 hrs by LC-MS/MS analysis; type: ADME, organism-based; parameters: dose 40 mg/kg, time < 48 hrs, route ig; conditions: in vivo, po
[27] = AUC (0 to infinity) in Sprague-Dawley rat at 40 mg/kg, IG measured upto 48 hrs by LC-MS/MS analysis; type: ADME, organism-based; parameters: time < 48 hrs, dose 40 mg/kg, route ig; conditions: Sprague-Dawley, in vivo, po
[28] = Hepatotoxicity in PD-1/PD-L1 humanized C57/BL6 mouse implanted with mouse MC38 cells assessed as effect on ALB level in serum at 50 mg/kg, IG qd administered on day 5 measured after 2 weeks; type: toxicity, organism-based, MC-38; conditions: in vivo, po, 336 h
[29] = Half life in Sprague-Dawley rat at 10 mg/kg, ip measured upto 48 hrs by LC-MS/MS analysis; type: ADME, organism-based; conditions: in vivo
[30] = AUC (0 to infinity) in Sprague-Dawley rat at 8 mg/kg, iv measured upto 48 hrs by LC-MS/MS analysis; type: ADME, organism-based; parameters: time < 48 hrs, dose 8 mg/kg, route iv; conditions: in vivo
[31] = Hepatotoxicity in PD-1/PD-L1 humanized C57/BL6 mouse implanted with mouse MC38 cells assessed as effect on ALT level in serum at 50 mg/kg, IG qd administered on day 5 measured after 2 weeks; type: toxicity, organism-based, MC-38; conditions: in vivo, po, 336 h

With `N#Cc1cncc(COc2cc(OCc3cccc(-c4ccccc4F)c3Cl)ccc2CNCCO)c1` the half-life [1] was 1.72 h, the Activity [2] was “Non-Toxic” and the Activity [3] was “Non-Toxic”. The inhibition [4] was “Active”, the Vz [5] was 1.8 L/kg and the Activity [6] was “Non-Toxic”. The Activity (PBMC) was “Non-Toxic”, the Cmax [7] was 4160 ng/mL and the half-life [8] was 0.99 h. For the same molecule, the Activity [9] was “Non-Toxic”, the IC50 (MC-38 [10]) was over 8 µM and the Tmax [11] was 1.75 h. For the same molecule, the Activity (MC-38 [12]) was “Active”, the Kd [13] was under 1 µM and the Activity (MC-38 [14]) was “Active”. The Activity (MC-38 [15]) was “Active”, the Activity (MC-38 [16]) was “Active” and the Activity (MC-38 [17]) was “Active”. For the same molecule, the CL/F [18] was 10.3 mL/min/kg, the Activity (MC-38 [19]) was “Active” and the Activity [20] was “Non-Toxic”. For the same molecule, the bioavailability [21] was 114%, the Activity [22] was “Non-Toxic” and the Activity [23] was “Non-Toxic”. The Activity (MC-38 [24]) was “Active”, the AUC(0-t) at 48 h [25] was 11500 ng·h/mL and the Cmax [26] was 21500 ng/mL. For the same molecule, the AUC(0-inf) [27] was 65500 ng·h/mL, the Activity [28] was “Non-Toxic” and the half-life [29] was 2.43 h. The AUC(0-inf) [30] was 13400 ng·h/mL and the Activity [31] was “Non-Toxic”.
